Experimental data published in BindingDB's records for doi:10.1021/jm00022a011 (Upjohn Laboratories, 1995).

Each molecule was assayed against Human immunodeficiency virus type 1 protease (Human immunodeficiency virus 1, UniProt Q72874) (assay: Inhibitory activity against HIV-I protease.).

**Q.** With `O=c1oc2c(c(O)c1C(c1ccccc1)C1CC1)CCCCCC2CC1CC1` (configuration not stated) [10-Cyclopropylmethyl-3-(cyclopropyl-phenyl-methyl)-4-hydroxy-5,6,7,8,9,10-hexahydro-cycloocta[b]pyran-2-one] as the molecule, how does the Ki read?
**A.** 0.024 µM

**Q.** Which Ki does the source give for `O=c1oc2c(c(O)c1C(c1ccccc1)C1CC1)CCCCCCC2CC1CC1` (configuration not stated) [11-Cyclopropylmethyl-3-(cyclopropyl-phenyl-methyl)-4-hydroxy-6,7,8,9,10,11-hexahydro-5H-cyclonona[b]pyran-2-one] here?
**A.** 0.024 µM

What follows are molecules tested on HIV-I infected H9 cells (antiviral activity) (assay: Antiviral activity against HIV-I infected H9 cells).

**Q.** With `CCNC(=O)Nc1cccc(C(c2c(O)c3c(oc2=O)CCCCCC3)C2CC2)c1` (configuration not stated) [1-{3-[Cyclopropyl-(4-hydroxy-2-oxo-5,6,7,8,9,10-hexahydro-2H-cycloocta[b]pyran-3-yl)-methyl]-phenyl}-3-ethyl-urea] as the molecule, how does the IC50 read?
**A.** > 60 µM

**Q.** How did the IC50 turn out when `O=C(Nc1ccccc1)Nc1cccc(C(c2c(O)c3c(oc2=O)CCCCCC3)C2CC2)c1` (configuration not stated) [1-{3-[Cyclopropyl-(4-hydroxy-2-oxo-5,6,7,8,9,10-hexahydro-2H-cycloocta[b]pyran-3-yl)-methyl]-phenyl}-3-phenyl-urea] was run?
**A.** 21.7 µM

**Q.** For `CCCC1CCCCCCc2c1oc(=O)c(C(c1ccccc1)C1CC1)c2O` (configuration not stated) [3-(Cyclopropyl-phenyl-methyl)-4-hydroxy-11-propyl-6,7,8,9,10,11-hexahydro-5H-cyclonona[b]pyran-2-one], which IC50 is on record?
**A.** 5.3 µM

**Q.** With `CC(C)(C)OC(=O)NCCC(=O)Nc1cccc(C(c2c(O)c3c(oc2=O)CCCCCC3)C2CC2)c1` (configuration not stated) [(2-{3-[Cyclopropyl-(4-hydroxy-2-oxo-5,6,7,8,9,10-hexahydro-2H-cycloocta[b]pyran-3-yl)-methyl]-phenylcarbamoyl}-ethyl)-carbamic acid tert-butyl ester] as the molecule, how does the IC50 read?
**A.** 33.4 µM

**Q.** With `CC(C)(C)OC(=O)NCCCC(=O)Nc1cccc(C(c2c(O)c3c(oc2=O)CCCCCC3)C2CC2)c1` (configuration not stated) [(3-{3-[Cyclopropyl-(4-hydroxy-2-oxo-5,6,7,8,9,10-hexahydro-2H-cycloocta[b]pyran-3-yl)-methyl]-phenylcarbamoyl}-propyl)-carbamic acid tert-butyl ester] as the molecule, how does the IC50 read?
**A.** 49.5 µM

**Q.** For `C[C@@H](NC(=O)OC(C)(C)C)C(=O)Nc1cccc(C(c2c(O)c3c(oc2=O)CCCCCC3)C2CC2)c1` (stereo partly drawn) [((R)-1-{3-[Cyclopropyl-(4-hydroxy-2-oxo-5,6,7,8,9,10-hexahydro-2H-cycloocta[b]pyran-3-yl)-methyl]-phenylcarbamoyl}-ethyl)-carbamic acid tert-butyl ester], which IC50 is on record?
**A.** > 60 µM

**Q.** How did the IC50 turn out when `C[C@H](NC(=O)OC(C)(C)C)C(=O)Nc1cccc(C(c2c(O)c3c(oc2=O)CCCCCC3)C2CC2)c1` (stereo partly drawn) [((S)-1-{3-[Cyclopropyl-(4-hydroxy-2-oxo-5,6,7,8,9,10-hexahydro-2H-cycloocta[b]pyran-3-yl)-methyl]-phenylcarbamoyl}-ethyl)-carbamic acid tert-butyl ester] was run?
**A.** 31.8 µM

**Q.** Which IC50 does the source give for `O=C(C=Cc1ccccc1)Nc1cccc(C(c2c(O)c3c(oc2=O)CCCCCC3)C2CC2)c1` (configuration not stated) [(E)-N-{3-[Cyclopropyl-(4-hydroxy-2-oxo-5,6,7,8,9,10-hexahydro-2H-cycloocta[b]pyran-3-yl)-methyl]-phenyl}-3-phenyl-acrylamide] here?
**A.** 17.1 µM

**Q.** With `CC(C)(C)OC(=O)N1CCC[C@H]1C(=O)Nc1cccc(C(c2c(O)c3c(oc2=O)CCCCCC3)C2CC2)c1` (stereo partly drawn) [(S)-2-{3-[Cyclopropyl-(4-hydroxy-2-oxo-5,6,7,8,9,10-hexahydro-2H-cycloocta[b]pyran-3-yl)-methyl]-phenylcarbamoyl}-pyrrolidine-1-carboxylic acid tert-butyl ester] as the molecule, how does the IC50 read?
**A.** 29.2 µM

**Q.** For `CC(C)(C)OC(=O)NCC(=O)Nc1cccc(C(c2c(O)c3c(oc2=O)CCCCCC3)C2CC2)c1` (configuration not stated) [({3-[Cyclopropyl-(4-hydroxy-2-oxo-5,6,7,8,9,10-hexahydro-2H-cycloocta[b]pyran-3-yl)-methyl]-phenylcarbamoyl}-methyl)-carbamic acid tert-butyl ester], which IC50 is on record?
**A.** 29.8 µM

**Q.** For `O=C(Cc1ccccc1)Nc1cccc(C(c2c(O)c3c(oc2=O)CCCCCC3)C2CC2)c1` (configuration not stated) [N-{3-[Cyclopropyl-(4-hydroxy-2-oxo-5,6,7,8,9,10-hexahydro-2H-cycloocta[b]pyran-3-yl)-methyl]-phenyl}-2-phenyl-acetamide], which IC50 is on record?
**A.** 17.3 µM

**Q.** Which IC50 does the source give for `O=C(Nc1cccc(C(c2c(O)c3c(oc2=O)CCCCCC3)C2CC2)c1)c1ccc(F)cc1` (configuration not stated) [N-{3-[Cyclopropyl-(4-hydroxy-2-oxo-5,6,7,8,9,10-hexahydro-2H-cycloocta[b]pyran-3-yl)-methyl]-phenyl}-4-fluoro-benzamide] here?
**A.** 21.9 µM

**Q.** Which IC50 does the source give for `O=C(Nc1cccc(C(c2c(O)c3c(oc2=O)CCCCCC3)C2CC2)c1)c1ccccc1` (configuration not stated) [N-{3-[Cyclopropyl-(4-hydroxy-2-oxo-5,6,7,8,9,10-hexahydro-2H-cycloocta[b]pyran-3-yl)-methyl]-phenyl}-benzamide] here?
**A.** 23.5 µM

**Q.** With `CCCC(=O)Nc1cccc(C(c2c(O)c3c(oc2=O)CCCCCC3)C2CC2)c1` (configuration not stated) [N-{3-[Cyclopropyl-(4-hydroxy-2-oxo-5,6,7,8,9,10-hexahydro-2H-cycloocta[b]pyran-3-yl)-methyl]-phenyl}-butyramide] as the molecule, how does the IC50 read?
**A.** 35.1 µM

**Q.** How did the IC50 turn out when `CC(C)(C)OC(=O)N[C@@H](Cc1cnc[nH]1)C(=O)Nc1cccc(C(c2c(O)c3c(oc2=O)CCCCCC3)C2CC2)c1` (stereo partly drawn) [[(S)-1-{3-[Cyclopropyl-(4-hydroxy-2-oxo-5,6,7,8,9,10-hexahydro-2H-cycloocta[b]pyran-3-yl)-methyl]-phenylcarbamoyl}-2-(1H-imidazol-4-yl)-ethyl]-carbamic acid tert-butyl ester] was run?
**A.** 45.3 µM
